In US11053204B2, “Pyrimidinyloxy benzene derivatives as herbicides” (FMC Corporation, priority 2015, dated 2021):

Experiments:
Format in all cases: in vivo
[1] = test system: oat, wild (wild oat Avena fatua); assay: Test C preemergence, plant response rating
kochia (Kochia scoparia) = assay: Test C preemergence, plant response rating
[2] = test system: pigweed, palmer (palmer pigweed, Amaranthus palmeri); assay: Test C preemergence, plant response rating
[3] = test system: wild poinsettia (Euphorbia heterophylla); assay: Test C preemergence, plant response rating
[4] = test system: johnsongrass (Sorghum halepense); assay: Test C postemergence, plant response rating; conditions: for Johnsongrass plant response rating: scale 0 to 100 (0 no effect, 100 complete control)
Procedure, shortened: (§1)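 Greenhouse plants rated visually against untreated controls 13–15 d after treatment, scale 0 = no effect to 100 = complete control. Postemergence sprays went onto potted plants 2–18 cm tall (1–4 leaves); preemergence sprays onto soil freshly sown in loam–sand or silt loam, chemicals formulated in non-phytotoxic solvent with surfactant.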

[5] = test system: geranium, cutleaf (cutleaf geranium, Geranium dissectum); assay: Test C postemergence, plant response rating; conditions: for Geranium, Cutleaf plant response rating: scale 0 to 100 (0 no effect, 100 complete control)
Procedure, shortened: as §1

[6] = test system: Canada thistle (Cirsium arvense); assay: Test C postemergence, plant response rating; conditions: for Canada Thistle plant response rating: scale 0 to 100 (0 no effect, 100 complete control)
Procedure, shortened: as §1

[7] = test system: field violet (Viola arvensis); assay: Test C postemergence, plant response rating; conditions: for Field Violet plant response rating: scale 0 to 100 (0 no effect, 100 complete control)
Procedure, shortened: as §1

[8] = test system: wild poinsettia (Euphorbia heterophylla); assay: Test C postemergence, plant response rating; conditions: for Poinsettia, Wild plant response rating: scale 0 to 100 (0 no effect, 100 complete control)
Procedure, shortened: as §1

[9] = test system: wild mustard (Sinapis arvensis); assay: Test C postemergence, plant response rating; conditions: for Mustard, Wild plant response rating: scale 0 to 100 (0 no effect, 100 complete control)
Procedure, shortened: as §1

[10] = test system: surinam grass (Brachiaria decumbens); assay: Test C postemergence, plant response rating
Procedure, shortened: as §1

[11] = test system: field poppy (Papaver rhoeas); assay: Test C postemergence, plant response rating; conditions: for Field Poppy plant response rating: scale 0 to 100 (0 no effect, 100 complete control)
Procedure, shortened: as §1

[12] = test system: nightshade (eastern black nightshade, Solanum ptycanthum); assay: Test C postemergence, plant response rating; conditions: for Nightshade plant response rating: scale 0 to 100 (0 no effect, 100 complete control)
Procedure, shortened: as §1

[13] = test system: buckwheat, wild (wild buckwheat, Polygonum convolvulus); assay: Test C postemergence, plant response rating; conditions: for Buckwheat, Wild plant response rating: scale 0 to 100 (0 no effect, 100 complete control)
Procedure, shortened: as §1

[14] = test system: windgrass (Apera spica-venti); assay: Test C postemergence, plant response rating
Procedure, shortened: as §1

[15] = test system: speedwell (bird's-eye speedwell, Veronica persica); assay: Test C postemergence, plant response rating; conditions: for Speedwell plant response rating: scale 0 to 100 (0 no effect, 100 complete control)
Procedure, shortened: as §1

[16] = test system: pigweed, palmer (palmer pigweed, Amaranthus palmeri); assay: Test C postemergence, plant response rating; conditions: for Pigweed, Palmer plant response rating: scale 0 to 100 (0 no effect, 100 complete control)
Procedure, shortened: as §1

[17] = test system: johnsongrass (Sorghum halepense); assay: Test C preemergence, plant response rating
[18] = test system: windgrass (Apera spica-venti); assay: Test C preemergence, plant response rating
[19] = 125 g ai/ha, scale 0 to 100 (0 no effect, 100 complete control)

O=C(CCCC(F)(F)F)c1c(Cl)cccc1Oc1ncc(Cl)cn1 [Compound 143]
Plant response rating, Oat, Wild ([1]; 31 g ai/ha, scale 0 to 100): 0 | Plant response rating, Oat, Wild ([1]; 62 g ai/ha, scale 0 to 100): 5 | Plant response rating, Oat, Wild ([1]; 125 g ai/ha, scale of 0 to 100): 5 | Plant response rating, Kochia (kochia (Kochia scoparia); 31 g ai/ha, scale 0 to 100): 80 | Plant response rating, Kochia (kochia (Kochia scoparia); 62 g ai/ha, scale 0 to 100): 90 | Plant response rating, Kochia (kochia (Kochia scoparia); 125 g ai/ha, scale of 0 to 100): 90 | Plant response rating, Pigweed, Palmer ([2]; 31 g ai/ha, scale 0 to 100): 100 | Plant response rating, Pigweed, Palmer ([2]; 62 g ai/ha, scale 0 to 100): 100 | Plant response rating, Pigweed, Palmer ([2]; 125 g ai/ha, scale of 0 to 100): 100 | Plant response rating, Poinsettia, Wild ([3]; 31 g ai/ha, scale 0 to 100): 5 | Plant response rating, Poinsettia, Wild ([3]; 62 g ai/ha, scale 0 to 100): 20 | Plant response rating, Poinsettia, Wild ([3]; 125 g ai/ha, scale of 0 to 100): 25 | Plant response rating, Johnsongrass ([4]; 16 g ai/ha, scale of 0 to 100): 5 | Plant response rating, Johnsongrass ([4]; 31 g ai/ha, scale 0 to 100): 5 | Johnsongrass plant response rating ([4]; 62 g ai/ha): 10 | Johnsongrass plant response rating ([4]; 125 g ai/ha): 20 | Plant response rating, Geranium, Cutleaf ([5]; 16 g ai/ha, scale of 0 to 100): 30 | Plant response rating, Geranium, Cutleaf ([5]; 31 g ai/ha, scale 0 to 100): 50 | Geranium, Cutleaf plant response rating ([5]; 62 g ai/ha): 60 | Geranium, Cutleaf plant response rating ([5]; 125 g ai/ha): 75 | Plant response rating, Canada Thistle ([6]; 16 g ai/ha, scale of 0 to 100): 85 | Plant response rating, Canada Thistle ([6]; 31 g ai/ha, scale 0 to 100): 85 | Canada Thistle plant response rating ([6]; 62 g ai/ha): 90 | Canada Thistle plant response rating ([6]; 125 g ai/ha): 100 | Plant response rating, Field Violet ([7]; 16 g ai/ha, scale of 0 to 100): 75 | Plant response rating, Field Violet ([7]; 31 g ai/ha, scale 0 to 100): 80 | Field Violet plant response rating ([7]; 62 g ai/ha): 98 | Field Violet plant response rating ([7]; 125 g ai/ha): 100 | Plant response rating, Poinsettia, Wild ([8]; 16 g ai/ha, scale of 0 to 100): 55 | Plant response rating, Poinsettia, Wild ([8]; 31 g ai/ha, scale 0 to 100): 65 | Poinsettia, Wild plant response rating ([8]; 62 g ai/ha): 70 | Poinsettia, Wild plant response rating ([8]; 125 g ai/ha): 75 | Plant response rating, Mustard, Wild ([9]; 16 g ai/ha, scale of 0 to 100): 100 | Plant response rating, Mustard, Wild ([9]; 31 g ai/ha, scale 0 to 100): 100 | Mustard, Wild plant response rating ([9]; 62 g ai/ha): 100 | Mustard, Wild plant response rating ([9]; 125 g ai/ha): 100 | Plant response rating, Surinam Grass ([10]; 16 g ai/ha, scale of 0 to 100): 5 | Plant response rating, Surinam Grass ([10]; 31 g ai/ha, scale 0 to 100): 10 | Surinam Grass plant response rating [10, 19]: 20 | Plant response rating, Field Poppy ([11]; 16 g ai/ha, scale of 0 to 100): 80 | Plant response rating, Field Poppy ([11]; 31 g ai/ha, scale 0 to 100): 90 | Field Poppy plant response rating ([11]; 62 g ai/ha): 90 | Field Poppy plant response rating ([11]; 125 g ai/ha): 100 | Plant response rating, Nightshade ([12]; 16 g ai/ha, scale of 0 to 100): 65 | Plant response rating, Nightshade ([12]; 31 g ai/ha, scale 0 to 100): 85 | Nightshade plant response rating ([12]; 62 g ai/ha): 90 | Nightshade plant response rating ([12]; 125 g ai/ha): 90 | Plant response rating, Buckwheat, Wild ([13]; 16 g ai/ha, scale of 0 to 100): 75 | Plant response rating, Buckwheat, Wild ([13]; 31 g ai/ha, scale 0 to 100): 85 | Buckwheat, Wild plant response rating ([13]; 62 g ai/ha): 100 | Buckwheat, Wild plant response rating ([13]; 125 g ai/ha): 100 | Plant response rating, Windgrass ([14]; 16 g ai/ha, scale of 0 to 100): 30 | Plant response rating, Windgrass ([14]; 31 g ai/ha, scale 0 to 100): 35 | Windgrass plant response rating [14, 19]: 40 | Plant response rating, Speedwell ([15]; 16 g ai/ha, scale of 0 to 100): 80 | Plant response rating, Speedwell ([15]; 31 g ai/ha, scale 0 to 100): 80 | Speedwell plant response rating ([15]; 62 g ai/ha): 85 | Speedwell plant response rating ([15]; 125 g ai/ha): 100 | Plant response rating, Pigweed, Palmer ([16]; 16 g ai/ha, scale of 0 to 100): 45 | Plant response rating, Pigweed, Palmer ([16]; 31 g ai/ha, scale 0 to 100): 75 | Pigweed, Palmer plant response rating ([16]; 62 g ai/ha): 80 | Pigweed, Palmer plant response rating ([16]; 125 g ai/ha): 100 | Plant response rating, Johnsongrass ([17]; 31 g ai/ha, scale 0 to 100): 25 | Plant response rating, Johnsongrass ([17]; 62 g ai/ha, scale 0 to 100): 50 | Plant response rating, Johnsongrass ([17]; 125 g ai/ha, scale of 0 to 100): 80 | Plant response rating, Windgrass ([18]; 31 g ai/ha, scale 0 to 100): 85 | Plant response rating, Windgrass ([18]; 62 g ai/ha, scale 0 to 100): 100 | Plant response rating, Windgrass ([18]; 125 g ai/ha, scale of 0 to 100): 100
